Legend:
Beta-galactosidase = Beta-galactosidase (Escherichia coli, UniProt Q8VNN2); assay: Concentration required to inhibit beta-galactosidase enzyme by 50% from Escherichia coli was reported
[1] = molecular target: Beta-galactosidase (Escherichia coli) (UniProt Q8VNN2); assay: Compound was evaluated for the percentage inhibition of beta-galactosidase enzyme from Escherichia coli at the concentration of 1 mM
[2] = test system: Beta-galactosidase (Canavalia ensiformis); assay: Compound was evaluated for the percentage inhibition of beta-galactosidase enzyme from jack bean at the concentration of 1 mM

Sequence of Beta-galactosidase (Escherichia coli) (Q8VNN2 whole entry, looked up): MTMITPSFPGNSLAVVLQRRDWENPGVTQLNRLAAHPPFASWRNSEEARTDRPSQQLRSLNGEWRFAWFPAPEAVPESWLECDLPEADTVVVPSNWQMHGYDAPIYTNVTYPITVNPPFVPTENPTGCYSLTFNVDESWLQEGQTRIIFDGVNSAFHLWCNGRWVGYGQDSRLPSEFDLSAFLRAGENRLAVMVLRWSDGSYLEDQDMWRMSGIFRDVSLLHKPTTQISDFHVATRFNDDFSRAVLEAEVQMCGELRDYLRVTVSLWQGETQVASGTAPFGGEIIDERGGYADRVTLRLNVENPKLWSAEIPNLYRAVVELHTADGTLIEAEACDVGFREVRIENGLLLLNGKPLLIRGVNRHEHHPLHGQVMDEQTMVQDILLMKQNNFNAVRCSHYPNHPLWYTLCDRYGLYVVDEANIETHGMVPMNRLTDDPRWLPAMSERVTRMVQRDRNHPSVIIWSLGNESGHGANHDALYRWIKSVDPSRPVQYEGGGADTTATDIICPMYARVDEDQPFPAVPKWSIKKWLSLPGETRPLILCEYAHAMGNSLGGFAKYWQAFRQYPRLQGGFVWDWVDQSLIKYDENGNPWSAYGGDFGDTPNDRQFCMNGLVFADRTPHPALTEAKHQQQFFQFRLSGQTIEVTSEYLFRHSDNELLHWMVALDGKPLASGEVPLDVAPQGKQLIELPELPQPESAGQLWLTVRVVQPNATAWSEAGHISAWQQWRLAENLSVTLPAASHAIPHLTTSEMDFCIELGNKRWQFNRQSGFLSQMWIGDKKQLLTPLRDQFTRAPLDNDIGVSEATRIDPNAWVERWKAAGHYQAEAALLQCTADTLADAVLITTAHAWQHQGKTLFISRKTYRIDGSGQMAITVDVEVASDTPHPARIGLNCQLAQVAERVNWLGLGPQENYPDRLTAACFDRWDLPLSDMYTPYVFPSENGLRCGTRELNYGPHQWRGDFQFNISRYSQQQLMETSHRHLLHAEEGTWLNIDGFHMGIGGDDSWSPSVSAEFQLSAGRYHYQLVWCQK
Sequence of Beta-galactosidase (Q8VNN2 whole entry): as the sequence (Q8VNN2 whole entry, looked up) above

## CC(=O)N[C@@H]1C(O)O[C@H](CO)[C@H](O)[C@@H]1C[C@H]1O[C@H](CO)[C@@H](O)[C@H](O)[C@@H]1O.CC(=O)N[C@H]1C(O)O[C@H](C(O)CO)[C@@H]1C[C@H]1O[C@H](CO)[C@@H](O)[C@H](O)[C@@H]1O (stereo partly drawn)
Beta-galactosidase
  IC50: 500 µM
[1]
  inhibition: 86%
[2]
  inhibition: 92%

Source: ChEMBL document CHEMBL1132066, “Synthesis of alpha-C(1-->3)-mannopyranoside of N-acetylgalactosamine, a new beta-galactosidase inhibitor” (Bioorg Med Chem Lett, 1999)
